Results as given in publication PMC8214221, “Sequence determinants in the cathelicidin LL-37 that promote inflammation via presentation of RNA to scavenger receptors” (The Journal of Biological Chemistry, 2021).
Converted amounts (≈) assume the structure as drawn. Where two headings read alike, the source gives them in different places. Residues, ends and D or L forms follow the SMILES beside them.

Legend:
[1] = tested on: normal human epidermal keratinocytes (NHEKs); test: LDH release cytotoxicity assay in keratinocytes; assay type: cell-based; settings: minimal concentration giving 50% LDH release by NHEKs
How it was run: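 Normal human epidermal keratinocytes were exposed to LL-34 parent and alanine-substituted peptides. Cytotoxicity was read as LDH release in fresh culture supernatants after treatment, using a commercial kit, and reported as the minimal concentration showing toxicity.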

[2] = tested on: methicillin-resistant Staphylococcus aureus strain USA300; assay type: cell-based; settings: for Antimicrobial potency against S. aureus USA300 compared with LL-34 parent peptide: MIC comparison with parent (MIC 25 μM), 18 h
From the text: Since LL-34 was the minimal truncation mutant of LL-37 that retained both antimicrobial and immune modulatory activity, we prepared a series of synthetic peptides with sequential substitutions of alanine at each amino acid position of the LL-34 parent peptide (Table 1). We compared the minimum inhibitory concentration (MIC) for the LL-34 parent peptide and the alanine mutants (LL-34 peptides—L1A and R34A) against methicillin-resistant Staphylococcus aureus strain USA300 (Fig. 1A). LL-34 peptides were incubated at concentrations of 0 to 100 μM with bacteria. The minimal concentration at which no growth was observed was noted after 18 h of incubation. […] Because of these changes in the MIC against S. aureus between the mutants, we investigated the effective toxicity profile of the peptides in normal human epidermal keratinocytes (NHEKs) by lactate dehydrogenase (LDH) release assay (Table 1). […] Most other peptides were cytotoxic at a minimal concentration of 10 μM, whereas LL-34—K15A was toxic at a concentration of 2.5 μM.
Methicillin-resistant S. aureus USA300 and methicillin-sensitive S. aureus SA113 (American Type Culture Collection 35556) were cultured in 3% tryptic soy broth overnight at 37 °C with shaking at 250 rpm. GAS M49 strain NZ131 was cultured in Todd Hewitt broth supplemented with 1% yeast extract overnight at 37 °C without shaking. E. coli R1 strain RS218 was cultured in LB broth overnight at 37 °C with shaking at 250 rpm. MIC values were determined using a round-bottom 96-well microdilution method with RPMI cell culture media (as a source of Ca^2+ and Mg^2+) supplemented with tryptic soy broth, Todd Hewitt broth/yeast extract, or LB to facilitate growth of the respective bacterial strains. Overnight bacterial cultures were subcultured into fresh broth and grown to midlate log phase indicated by an absorbance at 600 nm value between 0.8 and 1.0 for each bacterial strain. The absorbance was then normalized to provide a concentration of 1 × 10^7 colony-forming units/ml in RPMI medium. The LL-34 parent and alanine scan mutants were serially diluted into the 96-well microtiter plates containing prewarmed RPMI bacterial growth medium. A 10 μl aliquot of the midlate log phase bacteria was inoculated into the 96-well microtiter plates that contained 95 μl of RPMI medium with or without the LL-34 peptide dilutions and incubated for 16 to 18 h at […] with shaking at 200 rpm. Inhibition of growth was determined by measuring the absorbance at 600 nm readings of each well using a microplate reader (Infinite M200 Pro; Tecan). The MIC of each bacterial strain was determined by the lowest peptide concentration that inhibited more than 80% bacterial growth.

[3] = tested on: NHEKs, IL-6 secretion in response to U1 dsRNA; test: IL-6 secretion ELISA in NHEKs; assay type: cell-based, human; settings: U1 dsRNA 2.5 μg/ml + peptide 2 μM, 18 h, n = 3
Procedure: Protein levels of human IL-6 were analyzed from cell supernatant with ELISA (n = 3). Corresponding MIC values of LL-34 peptides L1A–R34A against Staphylococcus aureus USA300 are shown in the heat map. B, human dermal endothelial cells (HDMECs) were treated with either U1 dsRNA (2.5 μg/ml) or a combination of U1 dsRNA (2.5 μg/ml) and LL-34 peptides (Pep 1–Pep 34 and Pep–parent LL-34) at 2 μM for 18 h. IL-6 ELISA results are shown (n = 3). Green bars denote loss of IL-6 protein secretion compared with parent control shown in red. C, helical wheel plot for LL-34. Amino acids with green circles denote specific residues where replacement with an alanine caused the loss of IL-6 secretion compared with parent LL-34 peptide in NHEKs cotreated with U1 dsRNA. D, in the helical wheel plot for LL-34, circled green amino acids indicate that a substitution caused a loss of vetting in HDMEC. E–H, NHEKs were treated with LL-34-parent peptide (LL-34-P), LL-34-F5A, LL-34-I24A, LL-34-F27A, and LL-34-L31A at 2 μM, either individually or in combination with U1 dsRNA (2.5 μg/ml) for 8 h. Gene expression of IL-6, IFNB1, TSLP, and CXCL10 was assessed with qRT-PCR. GAPDH was used as a reference gene (n = 3) (∗p < 0.05; ∗∗∗∗p < 0.0001). One way-ANOVA was used. IL-6, interleukin 6; LL-34, 34-amino acid peptide; MIC, minimum inhibitory concentration, ns, not significant.
We hypothesized that sequential replacement of each amino acid in LL-34 peptide with a neutral amino acid alanine might reveal the amino acid residues critical for its ability to induce inflammation in response to U1 dsRNA. First, we treated NHEKs and human dermal microvascular endothelial cells (HDMECs) with LL-34 parent peptide and each of the 34 mutants at 2 μM for 18 h and measured the secretion of interleukin 6 (IL-6) in the supernatant by ELISA (Fig. S1, A and B). […] We then treated both NHEKs and HDMECs with a combination of U1 dsRNA (2.5 μg/ml) and the LL-34 parent/mutant peptides at 2 μM for 18 h and measured IL-6 secretion (Fig. 1, A–C). […] A similar pattern of IL-6 release was observed when HDMECs were treated with the peptide library and U1 dsRNA (Fig. 1B).
Cell culture supernatant was frozen at −80 °C until use for analysis. ELISA was performed with sandwich ELISA kits (R&D Systems) and quantified on a Spectramax Absorbance reader (Molecular Biosystems). Data were analyzed with GraphPad.

SMILES | Minimal cytotoxic concentration in NHEK (LD50) [1] [µM] | Antimicrobial potency against S. aureus USA300 compared with LL-34 parent peptide [2] | Antimicrobial potency against S. aureus USA300 compared with LL-34 parent peptide ([2]; listed as IL3a) | IL-6 protein secretion, cotreatment with U1 dsRNA, vs U1 dsRNA + LL-34 parent [3] | MIC against S. aureus USA300 ([2]; USA300, 18 h) [µM]
CC[C@H](C)[C@H](NC(=O)[C@H](CCCNC(=N)N)NC(=O)[C@H](CCC(N)=O)NC(=O)[C@@H](NC(=O)[C@@H](NC(=O)[C@H](CCCNC(=N)N)NC(=O)[C@H](CCCCN)NC(=O)[C@H](Cc1ccccc1)NC(=O)[C@H](CCC(=O)O)NC(=O)[C@H](CCCCN)NC(=O)CNC(=O)[C@H](C)NC(=O)[C@H](CCCCN)NC(=O)[C@H](CCC(=O)O)NC(=O)[C@H](CCCCN)NC(=O)[C@H](CO)NC(=O)[C@H](CCCCN)NC(=O)[C@H](CCCNC(=N)N)NC(=O)[C@H](Cc1ccccc1)NC(=O)[C@H](Cc1ccccc1)NC(=O)[C@H](CC(=O)O)NC(=O)CNC(=O)[C@H](CC(C)C)NC(=O)[C@@H](N)CC(C)C)[C@@H](C)CC)C(C)C)C(=O)N[C@@H](CCCCN)C(=O)N[C@@H](CC(=O)O)C(=O)N[C@@H](Cc1ccccc1)C(=O)N[C@@H](CC(C)C)C(=O)N[C@@H](CCCNC(=N)N)C(=O)N[C@@H](CC(N)=O)C(=O)N[C@@H](CC(C)C)C(=O)N[C@H](C(=O)N1CCC[C@H]1C(=O)N[C@@H](CCCNC(=N)N)C(=O)O)C(C)C [LL-34—I13A] (H-LLGDFFRKSKEKAGKEFKRIVQRIKDFLRNLVPR-OH) | 5 | killed S. aureus USA300 more potently | gained antimicrobial activity | reduced secretion of IL-6 protein | 
CC[C@H](C)[C@H](NC(=O)[C@H](C)NC(=O)[C@H](CCC(=O)O)NC(=O)[C@H](CCCCN)NC(=O)[C@H](CO)NC(=O)[C@H](CCCCN)NC(=O)[C@H](CCCNC(=N)N)NC(=O)[C@H](Cc1ccccc1)NC(=O)[C@H](Cc1ccccc1)NC(=O)[C@H](CC(=O)O)NC(=O)CNC(=O)[C@H](CC(C)C)NC(=O)[C@@H](N)CC(C)C)C(=O)NCC(=O)N[C@@H](CCCCN)C(=O)N[C@@H](CCC(=O)O)C(=O)N[C@@H](Cc1ccccc1)C(=O)N[C@@H](CCCCN)C(=O)N[C@@H](CCCNC(=N)N)C(=O)N[C@H](C(=O)N[C@H](C(=O)N[C@@H](CCC(N)=O)C(=O)N[C@@H](CCCNC(=N)N)C(=O)N[C@H](C(=O)N[C@@H](CCCCN)C(=O)N[C@@H](CC(=O)O)C(=O)N[C@@H](Cc1ccccc1)C(=O)N[C@@H](CC(C)C)C(=O)N[C@@H](CCCNC(=N)N)C(=O)N[C@@H](CC(N)=O)C(=O)N[C@@H](CC(C)C)C(=O)N[C@H](C(=O)N1CCC[C@H]1C(=O)N[C@@H](CCCNC(=N)N)C(=O)O)C(C)C)[C@@H](C)CC)C(C)C)[C@@H](C)CC [LL-34—K12A] (H-LLGDFFRKSKEAIGKEFKRIVQRIKDFLRNLVPR-OH) | 5 | reduced MIC compared with the parent peptide |  | reduced secretion of IL-6 protein | 
CC[C@H](C)[C@H](NC(=O)[C@H](CCCCN)NC(=O)[C@H](CCC(=O)O)NC(=O)[C@H](CCCCN)NC(=O)[C@H](CO)NC(=O)[C@H](CCCCN)NC(=O)[C@H](CCCNC(=N)N)NC(=O)[C@H](Cc1ccccc1)NC(=O)[C@H](Cc1ccccc1)NC(=O)[C@H](CC(=O)O)NC(=O)CNC(=O)[C@H](CC(C)C)NC(=O)[C@@H](N)CC(C)C)C(=O)NCC(=O)N[C@@H](CCCCN)C(=O)N[C@@H](CCC(=O)O)C(=O)N[C@@H](Cc1ccccc1)C(=O)N[C@@H](CCCCN)C(=O)N[C@@H](CCCNC(=N)N)C(=O)N[C@H](C(=O)N[C@H](C(=O)N[C@@H](CCC(N)=O)C(=O)N[C@@H](CCCNC(=N)N)C(=O)N[C@H](C(=O)N[C@@H](CCCCN)C(=O)N[C@@H](CC(=O)O)C(=O)N[C@@H](Cc1ccccc1)C(=O)N[C@@H](CC(C)C)C(=O)N[C@@H](CCCNC(=N)N)C(=O)N[C@@H](CC(N)=O)C(=O)N[C@@H](CC(C)C)C(=O)N[C@H](C(=O)N1CCC[C@H]1C(=O)N[C@@H](C)C(=O)O)C(C)C)[C@@H](C)CC)C(C)C)[C@@H](C)CC [LL-34—R34A] (H-LLGDFFRKSKEKIGKEFKRIVQRIKDFLRNLVPA-OH) | 10 | reduced MIC compared with the parent peptide |  |  | 
CC[C@H](C)[C@H](NC(=O)[C@H](CCCCN)NC(=O)[C@H](CCC(=O)O)NC(=O)[C@H](CCCCN)NC(=O)[C@H](CO)NC(=O)[C@H](CCCCN)NC(=O)[C@H](CCCNC(=N)N)NC(=O)[C@H](Cc1ccccc1)NC(=O)[C@H](Cc1ccccc1)NC(=O)[C@H](CC(=O)O)NC(=O)CNC(=O)[C@H](CC(C)C)NC(=O)[C@@H](N)CC(C)C)C(=O)NCC(=O)N[C@@H](CCCCN)C(=O)N[C@@H](CCC(=O)O)C(=O)N[C@@H](Cc1ccccc1)C(=O)N[C@@H](CCCCN)C(=O)N[C@@H](CCCNC(=N)N)C(=O)N[C@H](C(=O)N[C@H](C(=O)N[C@@H](CCC(N)=O)C(=O)N[C@@H](CCCNC(=N)N)C(=O)N[C@H](C(=O)N[C@@H](CCCCN)C(=O)N[C@@H](CC(=O)O)C(=O)N[C@@H](Cc1ccccc1)C(=O)N[C@@H](CC(C)C)C(=O)N[C@@H](CCCNC(=N)N)C(=O)N[C@@H](CC(N)=O)C(=O)N[C@@H](CC(C)C)C(=O)N[C@H](C(=O)N1CCC[C@H]1C(=O)N[C@@H](CCCNC(=N)N)C(=O)O)C(C)C)[C@@H](C)CC)C(C)C)[C@@H](C)CC [LL-34—parent] (H-LLGDFFRKSKEKIGKEFKRIVQRIKDFLRNLVPR-OH) | 5 |  |  |  | 25 (≈ 104 µg/mL)
